This note sets out measurements from US4124726A, “Anti-inflammatory agent of benzoyl derivative” (priority 1976, dated 1978).

One data set relates to platelet aggregation. Put plainly: blood platelet aggregation inhibition, collagen as inducer. Type of data set: cell-based. The note with it: 10^-4 mole, rabbit PRP. The text has this:
Blood platelet aggregation inhibiting effect
Male rabbits (Japan original white strain 3.3 to 3.6 kg) were anesthetized with Thiopental sodium and blood was sampled from the carotid artery.
`CCCCCc1ccc(C(=O)c2ccc(CCCCC)cc2)cc1` [compound 111]: the “Blood platelet agg. inh. (percentage inhibition of platelet aggregation)” value came out at 10.3%.

On to `Cc1ccc(C(=O)Cc2ccccc2)cc1` [compound 48], for which the “Blood platelet agg. inh. (percentage inhibition of platelet aggregation)” value came out at 20.5%.

On to `CCCCCCCCCCCc1ccc(C(=O)Cc2ccccc2)cc1` [compound 51], for which the “Blood platelet agg. inh. (percentage inhibition of platelet aggregation)” value is 9.5%.

Consider `CCCCCOc1ccc(C(=O)Cc2ccccc2)cc1` [compound 59], for which the “Blood platelet agg. inh. (percentage inhibition of platelet aggregation)” value is on record as 25.6%.

As for `CCCCCCCCCc1ccc(C(=O)c2ccc(CCCC)cc2)cc1` [compound 102], the “Blood platelet agg. inh. (percentage inhibition of platelet aggregation)” value came to 30.4%.

Take `CCCCc1ccc(C(=O)c2cccc(C)c2)cc1` [compound 88]: the “Blood platelet agg. inh. (percentage inhibition of platelet aggregation)” value is recorded as 24.5%.

`CCCCCCCCCCCCc1ccc(C(=O)c2ccccc2)cc1` [compound 69]: the “Blood platelet agg. inh. (percentage inhibition of platelet aggregation)” value is listed as 13.5%.

`CCCCCCCCCCc1ccc(C(=O)c2ccccc2)cc1` [compound 68]: the “Blood platelet agg. inh. (percentage inhibition of platelet aggregation)” value was determined as 16.5%.

`CCCc1ccc(C(=O)c2ccc(OC)cc2)cc1` [compound 93]: the “Blood platelet agg. inh. (percentage inhibition of platelet aggregation)” value is 24.4%.

In the case of `CCCCCCCCc1ccc(C(=O)c2ccc(CCCC)cc2)cc1` [compound 101], the “Blood platelet agg. inh. (percentage inhibition of platelet aggregation)” value turned out to be 27.9%.

Take `CCCCc1ccc(CCCC)c(C(=O)c2ccccc2)c1` [compound 77]: the “Blood platelet agg. inh. (percentage inhibition of platelet aggregation)” value amounted to 25.1%.

With `Cc1cc(C)c(C(=O)c2ccc(O)cc2)c(C)c1` [compound 108], the “Blood platelet agg. inh. (percentage inhibition of platelet aggregation)” value was 28.4%.

`CCCc1ccc(C(=O)c2ccc(CCC)cc2)cc1` [compound 110]: the “Blood platelet agg. inh. (percentage inhibition of platelet aggregation)” value was 20.5%.

Consider `CCCCOc1ccc(C(=O)c2ccc(CCCC)cc2)cc1` [compound 95], for which the “Blood platelet agg. inh. (percentage inhibition of platelet aggregation)” value worked out at 30.0%.

For the compound `CCc1ccc(CC)c(C(=O)c2ccccc2)c1` [compound 80], the “Blood platelet agg. inh. (percentage inhibition of platelet aggregation)” value is on record as 30.3%.

With `Cc1cc(C)c(C)c(C(=O)c2ccccc2)c1C` [compound 78], the “Blood platelet agg. inh. (percentage inhibition of platelet aggregation)” value was 19.9%.

Take `CCCc1ccc(C(=O)c2cccc(C)c2)cc1` [compound 87]: the “Blood platelet agg. inh. (percentage inhibition of platelet aggregation)” value was determined as 30.1%.

As for `CCCc1ccc(C(=O)c2ccc(C)cc2C)cc1` [compound 96], the “Blood platelet agg. inh. (percentage inhibition of platelet aggregation)” value is reported as 28.5%.

For `COc1ccc(C(=O)Cc2ccc(Cl)cc2)cc1` [compound 60], the “Blood platelet agg. inh. (percentage inhibition of platelet aggregation)” value is recorded as 4.0%.

As to `Cc1ccc(C(=O)c2ccc(C)cc2)cc1` [compound 83], the “Blood platelet agg. inh. (percentage inhibition of platelet aggregation)” value is 27.6%.

For the compound `Cc1ccc(C(=O)c2c(C)cc(C)cc2C)cc1` [compound 86], the “Blood platelet agg. inh. (percentage inhibition of platelet aggregation)” value is 28.3%.

As to `Cc1ccc(C(=O)c2ccccc2)cc1` [compound 65], the “Blood platelet agg. inh. (percentage inhibition of platelet aggregation)” value is 21.0%.

For `CCCCCCCCCCCCc1ccc(C(=O)Cc2ccccc2)cc1` [compound 52], the “Blood platelet agg. inh. (percentage inhibition of platelet aggregation)” value stood at 6.8%.

Turning to `CCCCCCCCCCCc1ccc(C(=O)c2ccccc2)cc1` [compound 71], the “Blood platelet agg. inh. (percentage inhibition of platelet aggregation)” value is on record as 19.5%.

Consider `O=C(c1ccc(F)cc1)c1ccccc1Cl` [compound 115], for which the “Blood platelet agg. inh. (percentage inhibition of platelet aggregation)” value is 25.4%.

`O=C(c1ccccc1)c1ccc(O)cc1` [compound 109]: the “Blood platelet agg. inh. (percentage inhibition of platelet aggregation)” value is 13.7%.

In the case of `CCCc1ccc(C(=O)c2c(C)cc(C)cc2C)cc1` [compound 97], the “Blood platelet agg. inh. (percentage inhibition of platelet aggregation)” value amounted to 26.8%.

With `CCc1ccc(C(=O)C(=O)c2ccccc2)cc1` [compound 55], the “Blood platelet agg. inh. (percentage inhibition of platelet aggregation)” value was determined as 23.3%.

With `CCOc1ccc(C(=O)c2ccccc2)cc1` [compound 81], the “Blood platelet agg. inh. (percentage inhibition of platelet aggregation)” value is on record as 18.3%.

For `CCCOc1ccc(C(=O)Cc2ccccc2)cc1` [compound 58], the “Blood platelet agg. inh. (percentage inhibition of platelet aggregation)” value came out at 20.1%.

As for `CCCCc1ccc(C(=O)Cc2ccccc2)cc1` [compound 39], the “Blood platelet agg. inh. (percentage inhibition of platelet aggregation)” value worked out at 2.6%.

For `CCCc1ccc(C(=O)c2ccc(CC)cc2)cc1` [compound 112], the “Blood platelet agg. inh. (percentage inhibition of platelet aggregation)” value stood at 11.8%.

In the case of `CCCCCCCc1ccc(C(=O)c2ccc(CCCC)cc2)cc1` [compound 100], the “Blood platelet agg. inh. (percentage inhibition of platelet aggregation)” value worked out at 22.4%.

For `C=Cc1ccc(C(=O)c2ccccc2)cc1` [compound 82], the “Blood platelet agg. inh. (percentage inhibition of platelet aggregation)” value is 20.5%.

Test system in a further data set: not listed separately
Put plainly: in vivo. The settings on record: mouse, po. The procedure:
Each sample was dissolved in olive oil or dispersed in 1% Tween 20 aqueous solution.
As for `CCCCCCCCc1ccc(C(=O)c2ccccc2Br)cc1` [compound 145], the LD50 at 72 h turned out to be 2000 mg/kg.

Regarding `Cc1cc(C)c(C(=O)c2ccc(Br)cc2)c(C)c1` [compound 153], the LD50 at 72 h worked out at 1500 mg/kg.

Take `CC(C)c1ccc(C(=O)c2ccccc2F)cc1` [compound 117]: the LD50 at 72 h was 1500 mg/kg.

As for `CCCCc1ccc(C(=O)c2cccc(F)c2)cc1` [compound 123], the 50% lethal dose (LD50) at 72 h was 1500 mg/kg.

Take `Cc1cc(C)c(C(=O)c2ccccc2I)c(C)c1` [compound 159]: the 50% lethal dose (LD50) at 72 h amounted to 1000 mg/kg.

Turning to `Cc1cc(C)c(C(=O)c2ccc(I)cc2)c(C)c1` [compound 166], the LD50 at 72 h turned out to be 5000 mg/kg.

Consider `CCCCCCCCc1ccc(C(=O)c2ccccc2I)cc1` [compound 157], for which the LD50 at 72 h is > 10000 mg/kg.

`CCCCCc1ccc(C(=O)c2ccccc2Br)cc1` [compound 144]: the LD50 at 72 h was determined as 1500 mg/kg.

In the case of `CCCCc1ccc(C(=O)c2ccccc2Br)cc1` [compound 143], the LD50 at 72 h was determined as 1500 mg/kg.

The compound `Cc1ccc(C(=O)c2cccc(F)c2)c(C)c1` [compound 126] registered a 50% lethal dose (LD50) at 72 h of 1000 mg/kg.

Consider `CCCc1ccc(C(=O)c2cccc(Cl)c2)cc1` [compound 139], for which the median lethal dose (LD50) at 72 h is 1000 mg/kg.

As to `CCC(C)c1ccc(C(=O)c2ccccc2F)cc1` (stereo not drawn) [compound 119], the LD50 at 72 h was 2000 mg/kg.

Consider `CC(C)Cc1ccc(C(=O)c2ccccc2F)cc1` [compound 118], for which the median lethal dose (LD50) at 72 h worked out at 2000 mg/kg.

For the compound `Cc1cc(C)c(C(=O)c2cccc(I)c2)c(C)c1` [compound 163], the LD50 at 72 h was 1500 mg/kg.

`CCC(C)(C)c1ccc(C(=O)c2ccccc2F)cc1` [compound 122] gave an LD50 at 72 h of 2000 mg/kg.

In the case of `CCCc1ccc(C(=O)c2ccccc2I)cc1` [compound 154], the LD50 at 72 h was > 10000 mg/kg.

`Cc1cc(C)c(C(=O)c2ccc(F)cc2)c(C)c1` [compound 131]: the LD50 at 72 h was 2000 mg/kg.

Consider `CCCCOc1ccc(C(=O)c2ccc(Cl)cc2)cc1` [compound 137], for which the LD50 at 72 h amounted to 2000 mg/kg.

With `Cc1ccc(C(=O)c2ccc(Br)cc2)c(C)c1` [compound 152], the LD50 at 72 h came out at 1500 mg/kg.

`COc1ccc(C(=O)c2ccc(Cl)cc2)cc1` [compound 136] showed a median lethal dose (LD50) at 72 h of 2000 mg/kg.

Take `CCCCCc1ccc(C(=O)c2ccccc2I)cc1` [compound 156]: the LD50 at 72 h is > 10000 mg/kg.

Compound `CCCc1ccc(C(=O)c2ccccc2Cl)cc1` [compound 132] yielded a median lethal dose (LD50) at 72 h of 2000 mg/kg.

For `COc1ccc(C(=O)c2ccccc2F)cc1` [compound 116], the LD50 at 72 h was 4000 mg/kg.

On to `CCCCCCCCc1ccc(C(=O)c2ccccc2Cl)cc1` [compound 134], for which the LD50 at 72 h came out at 3000 mg/kg.

`CCCCc1ccc(C(=O)c2cccc(I)c2)cc1` [compound 160] registered an LD50 at 72 h of 2500 mg/kg.

`CCCCCc1ccc(C(=O)c2ccccc2Cl)cc1` [compound 133] gave an LD50 at 72 h of 2000 mg/kg.

As for `CCCc1ccc(C(=O)c2ccc(Br)cc2)cc1` [compound 150], the LD50 at 72 h was 2000 mg/kg.

With `Cc1ccc(C(=O)c2ccccc2I)c(C)c1` [compound 158], the LD50 at 72 h amounted to 2000 mg/kg.

For the compound `CCCCCCCCc1ccc(C(=O)c2ccc(I)cc2)cc1` [compound 164], the 50% lethal dose (LD50) at 72 h is > 10000 mg/kg.

Turning to `Cc1cc(C)c(C(=O)c2cccc(F)c2)c(C)c1` [compound 125], the median lethal dose (LD50) at 72 h turned out to be 1000 mg/kg.

Regarding `Cc1ccc(C(=O)c2ccccc2Cl)c(C)c1` [compound 135], the LD50 at 72 h is 1000 mg/kg.

For `CCCCCCCCc1ccc(C(=O)c2cccc(Cl)c2)cc1` [compound 141], the LD50 at 72 h worked out at 2000 mg/kg.

For `CCCCCCOc1ccc(C(=O)c2ccc(Cl)cc2)cc1` [compound 138], the LD50 at 72 h was 2500 mg/kg.

The compound `CCCCCc1ccc(C(=O)c2ccc(F)cc2)cc1` [compound 128] had a 50% lethal dose (LD50) at 72 h of 4000 mg/kg.

Regarding `CCCCCCCCc1ccc(C(=O)c2cccc(Br)c2)cc1` [compound 148], the LD50 at 72 h amounted to 2000 mg/kg.

In turn, `CCCCCc1ccc(C(=O)c2cccc(F)c2)cc1` [compound 124] displayed a 50% lethal dose (LD50) at 72 h of 3000 mg/kg.

On to `Cc1cc(C)c(C(=O)c2ccccc2Br)c(C)c1` [compound 147], for which the median lethal dose (LD50) at 72 h was found to be 1000 mg/kg.

`Cc1ccc(C(=O)c2ccccc2Br)c(C)c1` [compound 146] registered an LD50 at 72 h of 1000 mg/kg.

Compound `CCCCCc1ccc(C(=O)c2cccc(Cl)c2)cc1` [compound 140] returned a 50% lethal dose (LD50) at 72 h of 1000 mg/kg.

As to `CCCCCCCCc1ccc(C(=O)c2ccc(Br)cc2)cc1` [compound 151], the 50% lethal dose (LD50) at 72 h worked out at 2500 mg/kg.

As to `Cc1ccc(C(=O)c2cccc(Br)c2)c(C)c1` [compound 149], the LD50 at 72 h is 500 mg/kg.

For `CCCCc1ccc(C(=O)c2ccc(F)cc2)cc1` [compound 127], the LD50 at 72 h stood at 5000 mg/kg.

As for `Cc1ccc(C(=O)c2ccc(I)cc2)c(C)c1` [compound 165], the LD50 at 72 h was found to be 5000 mg/kg.

With `CCCCc1ccc(C(=O)Cc2ccccc2)cc1` [compound 39], the median lethal dose (LD50) at 72 h is > 10000 mg/kg.

Regarding `CCCc1ccc(C(=O)c2ccccc2Br)cc1` [compound 142], the LD50 at 72 h was 1500 mg/kg.

In the case of `CCCCCCCCc1ccc(C(=O)c2ccc(F)cc2)cc1` [compound 129], the LD50 at 72 h is > 10000 mg/kg.

Compound `CC(C)(C)c1ccc(C(=O)c2ccccc2F)cc1` [compound 120] registered a 50% lethal dose (LD50) at 72 h of 750 mg/kg.

For the compound `CCCCc1ccc(C(=O)c2ccccc2I)cc1` [compound 155], the LD50 at 72 h is > 10000 mg/kg.

Take `Cc1ccc(C(=O)c2cccc(I)c2)c(C)c1` [compound 162]: the LD50 at 72 h is 1500 mg/kg.

Regarding `Cc1ccc(C(=O)c2ccc(F)cc2)c(C)c1` [compound 130], the LD50 at 72 h worked out at 2000 mg/kg.
